In patent US12344606B2, “Next-generation modulators of stimulator of interferon genes (STING)” (RYVU THERAPEUTICS S.A., priority 2019, dated 2025):

Columns and labels:
[1] = tested on: interferon regulatory factor (IRF) pathway in THP-1 dual cells; assay: THP-1 Dual reporter assay, IRF pathway (luciferase); format: cell-based; conditions: Homo sapiens, THP1-Dual; 18 h stimulation, luminescence
Procedure: (§1) Compounds of the present invention were tested for their activity using THP-1 dual cells (Invivogen, cat no. thpd-nfis) allowing for simultaneous study of NF-κB pathway and the interferon regulatory factor (IRF) pathway. THP-1 dual cells contain luciferase reporter gene under the control of an ISG54 (interferon-stimulated gene) minimal promoter in conjunction with five interferon-stimulated response elements and a secreted embryonic alkaline phosphatase reporter gene under the control an IFN (interferon)-β minimal promoter fused to five copies of the NF-κB consensus transcriptional response element with three copies of the c-Rel binding site. Following 18 h of stimulation with STING agonist, medium was collected and transferred onto fresh cell culture plate. To verify activity of the IRF pathway, luminescence activity was measured with standard laboratory plate reader immediately after addition 10 μl of the medium to 50 μl (or 40 μl) of luminescence reagent (Invivogen, cat. No. rep-qlc2). To verify activity of NF-κB pathway, 20 μl (or 10 μl) of the medium was mixed with 80 μl of a detection medium (Invivogen, cat. No. rep-qb2) and incubated for 2 hours (or 1 hour) at 37° C. in a humidified atmosphere containing 5% CO2. Next, absorbance at 630 nm (or 655 nm) was recorded using standard laboratory plate reader.

[2] = tested on: NF-κB pathway in THP-1 dual cells; assay: THP-1 Dual reporter assay, NF-κB pathway (SEAP); format: cell-based; conditions: Homo sapiens, THP1-Dual; 18 h stimulation, absorbance; read-out: THP1 Dual EC50 (μM) NFkB
Procedure: as §1

human STING = human STING (Homo sapiens, UniProt Q86WV6); assay: Fluorescence Thermal Shift assay (hSTING FTS binding assay); conditions: STING 0.1 mg/ml, 20 min preincubation, SyproOrange
Procedure: Compounds of the present invention were tested for binding to human STING in Fluorescence Thermal Shift assay. STING was preincubated with the compounds for 20 minutes in 50 mM Hepes, 150 mM NaCl, pH 7.5 in 16 μl volume, following by adding 4 μl of SyproOrange dye dilution (ThermoFisher, cat no. S-6651). Final STING concentration was 0.1 mg/ml. Thermal unfolding was performed in Real-Time PCR QuantStudio 6 Flex System (Applied Biosystems), from 25 to 99° C., with continuous ramp mode and ramp rate 0.033° C./s. The data were analyzed using Protein Thermal Shift Software (ThermoFisher).

Chain of human STING (Q86WV6 whole entry H232R): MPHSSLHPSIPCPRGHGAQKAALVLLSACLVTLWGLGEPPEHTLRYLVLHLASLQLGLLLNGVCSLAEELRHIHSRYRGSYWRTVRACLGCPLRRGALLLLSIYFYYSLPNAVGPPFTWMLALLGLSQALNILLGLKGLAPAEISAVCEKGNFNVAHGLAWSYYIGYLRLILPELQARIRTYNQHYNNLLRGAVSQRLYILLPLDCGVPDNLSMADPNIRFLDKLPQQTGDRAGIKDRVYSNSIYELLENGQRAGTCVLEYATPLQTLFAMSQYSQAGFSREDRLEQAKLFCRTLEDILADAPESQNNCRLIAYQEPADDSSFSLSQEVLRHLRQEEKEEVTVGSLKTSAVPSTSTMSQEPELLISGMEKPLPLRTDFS

| EC50 [1] [µM] | EC50 [2] [µM] | hSTING FTS binding assay (ΔT C.°) (human STING) | SMILES |
| --- | --- | --- | --- |
| ≤ 1 | ≤ 1 | ++ (ΔTm>10° C.) | Cc1cc(CN(Cc2cn(C3CC3)c3cc(N4CCN(C)CC4)c(F)cc3c2=O)[C@H]2CCCN(c3cccnc3)C2)ccn1 [Example 10, 1-cyclopropyl-6-fluoro-7-(4-methylpiperazin-1-yl)-3-({[(2-methylpyridin-4-yl)methyl][(3S)-1-(pyridin-3-yl)piperidin-3-yl]amino}methyl)-1,4-dihydroquinolin-4-one] |
| ≤ 1 | ≤ 1 | ++ (ΔTm>10° C.) | COc1cc(CN(Cc2cn(C3CC3)c3cc(F)c(F)cc3c2=O)[C@H]2CCCN(c3cccnc3)C2)ccn1 [Example 11, 1-cyclopropyl-6,7-difluoro-3-({[(2-methoxypyridin-4-yl)methyl][(3S)-1-(pyridin-3-yl)piperidin-3-yl]amino}methyl)-1,4-dihydroquinolin-4-one] |
| ≤ 1 | ≤ 1 | ++ (ΔTm>10° C.) | Cc1cc(CN(Cc2cn(C3CC3)c3cc(F)c(F)cc3c2=O)[C@H]2CCCN(c3cccnc3)C2)ccn1 [Example 12, 1-cyclopropyl-6,7-difluoro-3-({[(2-methylpyridin-4-yl)methyl][(3S)-1-(pyridin-3-yl)piperidin-3-yl]amino}methyl)-1,4-dihydroquinolin-4-one] |
| 1 to 10 | 1 to 10 | + (ΔTm<10° C.) | Cc1cc(CN(Cc2cn(C)c3ccccc3c2=O)[C@H]2CCCN(c3ccccn3)C2)ccn1 [Example 13, 1-methyl-3-({[(2-methylpyridin-4-yl)methyl][(3S)-1-(pyridin-2-yl)piperidin-3-yl]amino}methyl)-1,4-dihydroquinolin-4-one] |
| 1 to 10 | ≥ 10 | + (ΔTm<10° C.) | Cc1cc(CN(Cc2cn(C)c3ccccc3c2=O)[C@H]2CCCN(c3ccc([N+](=O)[O-])nc3)C2)ccn1 [Example 14, 1-methyl-3-({[(2-methylpyridin-4-yl)methyl][(3S)-1-(6-nitropyridin-3-yl)piperidin-3-yl]amino}methyl)-1,4-dihydroquinolin-4-one] |
| 1 to 10 | 1 to 10 | + (ΔTm<10° C.) | Cc1cc(CN(Cc2cn(C)c3ccccc3c2=O)[C@H]2CCCN(c3ccncc3Br)C2)ccn1 [Example 15, 3-({[(3S)-1-(3-bromopyridin-4-yl)piperidin-3-yl][(2-methylpyridin-4-yl)methyl]amino}methyl)-1-methyl-1,4-dihydroquinolin-4-one] |
| 1 to 10 | 1 to 10 | + (ΔTm<10° C.) | Cc1cc(CN(Cc2cn(C)c3ccccc3c2=O)[C@H]2CCCN(c3ccc(F)nc3)C2)ccn1 [Example 16, 3-({[(3S)-1-(6-fluoropyridin-3-yl)piperidin-3-yl][(2-methylpyridin-4-yl)methyl]amino}methyl)-1-methyl-1,4-dihydroquinolin-4-one] |
| ≤ 1 | ≤ 1 | ++ (ΔTm>10° C.) | Cc1cc(CN(Cc2cn(C)c3cc(N4CCN(C)CC4)ccc3c2=O)[C@H]2CCCN(c3cccnc3)C2)ccn1 [Example 18, 1-methyl-7-(4-methylpiperazin-1-yl)-3-({[(2-methylpyridin-4-yl)methyl][(3S)-1-(pyridin-3-yl)piperidin-3-yl]amino}methyl)-1,4-dihydroquinolin-4-one] |
| ≥ 10 | ≥ 10 | + (ΔTm<10° C.) | COc1cc(N2CCC[C@H](N(Cc3ccnc(C)c3)Cc3cn(C)c4ccccc4c3=O)C2)ccn1 [Example 20, 3-({[(3S)-1-(2-methoxypyridin-4-yl)piperidin-3-yl][(2-methylpyridin-4-yl)methyl]amino}methyl)-1-methyl-1,4-dihydroquinolin-4-one] |
